Where a SMILES comes first, the peptide text is derived from it. Bridges are numbered along the chain shown (N, C = ends). [ ]: non-standard residue; d: D form. The star is where a group is joined. X1 = NC[C@@H](CC(=O)*)c1cccc(Cl)c1; Dab = NCC[C@H](N)C(=O)O; Dap = NC[C@H](N)C(=O)O
Assays:
[1] = system: A. baumannii ATCC 17978 (SEN) and A. baumannii ATCC BAA-1605 (MDR); experiment: Adaptive laboratory evolution (ALE), relative MIC of evolved lines; type: cell-based, Acinetobacter baumannii
Procedure, shortened: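 Ten parallel populations per antibiotic–ancestor pair were evolved in MHB at 37 °C, starting near 50% growth-inhibiting drug. Every 72 h they were passaged into 0.5–2.5× increasing concentrations, keeping the highest-drug well with OD600 > 0.2.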

[2] = system: E. coli ATCC 25922 (SEN) and E. coli NCTC13846 (MDR); experiment: Frequency-of-resistance (FoR) assay, relative MIC of mutants; type: cell-based, Escherichia coli
Procedure, shortened: (§1)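 Relative MIC is mutant MIC divided by ancestor MIC. Mutants: ten colonies from the highest-concentration plate after ~10^10 MHB-grown cells spent 48 h at 37 °C on antibiotic agar (triplicates, susceptible-range concentrations).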

[3] = system: K. pneumoniae ATCC 10031 (SEN) and K. pneumoniae ATCC 700603 (MDR); experiment: as above; type: cell-based, Klebsiella pneumoniae
Procedure, shortened: as §1

## CC(C)C[C@@H]1NC(=O)[C@@H](Cc2ccccc2)NC(=O)[C@H](CCN)NC(=O)[C@@H](NC(=O)[C@H](CN)NC(=O)[C@@H](NC(=O)C[C@H](CN)c2cccc(Cl)c2)[C@@H](C)O)CCNC(=O)[C@H]([C@@H](C)O)NC(=O)[C@H](CCN)NC(=O)[C@H](CCN)NC1=O [SPR206] (X1-T[Dap][Dab][Dab][dF]L[Dab][Dab]T; lactam 3-C (inferred); N-terminus assumed)
[1]; ALE, A. baumannii ATCC 17978 (AB-SEN), evolved line 8
  Relative MIC: 4096
[1]; ALE, A. baumannii ATCC 17978 (AB-SEN), evolved line 9
  Relative MIC: 8192
[1]; ALE, A. baumannii ATCC 17978 (AB-SEN), evolved line 10
  Relative MIC: 1024
[1]; ALE, A. baumannii ATCC BAA 1605 (AB-MDR), evolved line 1
  Relative MIC: 2048
[1]; ALE, A. baumannii ATCC BAA 1605 (AB-MDR), evolved line 2
  Relative MIC: 8192
[1]; ALE, A. baumannii ATCC BAA 1605 (AB-MDR), evolved line 3
  Relative MIC: 512
[1]; ALE, A. baumannii ATCC BAA 1605 (AB-MDR), evolved line 4
  Relative MIC: 2048
[1]; ALE, A. baumannii ATCC BAA 1605 (AB-MDR), evolved line 5
  Relative MIC: 8192
[1]; ALE, A. baumannii ATCC BAA 1605 (AB-MDR), evolved line 6
  Relative MIC: 8192
[1]; ALE, A. baumannii ATCC BAA 1605 (AB-MDR), evolved line 7
  Relative MIC: 8192
[1]; ALE, A. baumannii ATCC BAA 1605 (AB-MDR), evolved line 8
  Relative MIC: 4096
[1]; ALE, A. baumannii ATCC BAA 1605 (AB-MDR), evolved line 9
  Relative MIC: 8192
[1]; ALE, A. baumannii ATCC BAA 1605 (AB-MDR), evolved line 10
  Relative MIC: 1024
[1]; Acinetobacter baumannii ATCC 17978 (AB-SEN), evolved line 1
  Relative MIC: 2048
[1]; Acinetobacter baumannii ATCC 17978 (AB-SEN), evolved line 2
  Relative MIC: 8192
[1]; Acinetobacter baumannii ATCC 17978 (AB-SEN), evolved line 3
  Relative MIC: 512
[1]; Acinetobacter baumannii ATCC 17978 (AB-SEN), evolved line 4
  Relative MIC: 2048
[1]; Acinetobacter baumannii ATCC 17978 (AB-SEN), evolved line 5
  Relative MIC: 8192
[1]; Acinetobacter baumannii ATCC 17978 (AB-SEN), evolved line 6
  Relative MIC: 8192
[1]; Acinetobacter baumannii ATCC 17978 (AB-SEN), evolved line 7
  Relative MIC: 8192
[1]; Acinetobacter baumannii ATCC 17978 (AB-SEN), evolved line 8
  Relative MIC: 4096
[1]; Acinetobacter baumannii ATCC 17978 (AB-SEN), evolved line 9
  Relative MIC: 8192
[1]; Acinetobacter baumannii ATCC 17978 (AB-SEN), evolved line 10
  Relative MIC: 1024
[1]; Acinetobacter baumannii ATCC BAA 1605 (AB-MDR), evolved line 2
  Relative MIC: 8192
[1]; Acinetobacter baumannii ATCC BAA 1605 (AB-MDR), evolved line 4
  Relative MIC: 2048
[1]; Acinetobacter baumannii ATCC BAA 1605 (AB-MDR), evolved line 5
  Relative MIC: 8192
[1]; Acinetobacter baumannii ATCC BAA 1605 (AB-MDR), evolved line 6
  Relative MIC: 8192
[1]; Acinetobacter baumannii ATCC BAA 1605 (AB-MDR), evolved line 7
  Relative MIC: 8192
[1]; Acinetobacter baumannii ATCC BAA 1605 (AB-MDR), evolved line 8
  Relative MIC: 4096
[1]; Acinetobacter baumannii ATCC BAA 1605 (AB-MDR), evolved line 9
  Relative MIC: 8192
[1]; Acinetobacter baumannii ATCC BAA 1605 (AB-MDR), evolved line 10
  Relative MIC: 1024
[1]; Acinetobacter baumannii ATCC BAA 1605 (AB-MDR), evolved line 1
  Relative MIC: 2048
[1]; Acinetobacter baumannii ATCC BAA 1605 (AB-MDR), evolved line 3
  Relative MIC: 512
[2]; E. coli ATCC 25922 (EC-SEN), evolved line 1
  MIC of evolved line: 32 µg/mL
[2]; E. coli ATCC 25922 (EC-SEN), evolved line 1, evolved vs ancestor
  Relative MIC: 128
[2]; E. coli ATCC 25922 (EC-SEN), evolved line 2
  MIC of evolved line: 32 µg/mL
[2]; E. coli ATCC 25922 (EC-SEN), evolved line 2, evolved vs ancestor
  Relative MIC: 128
[2]; E. coli ATCC 25922 (EC-SEN), evolved line 3
  MIC of evolved line: 32 µg/mL
[2]; E. coli ATCC 25922 (EC-SEN), evolved line 3, evolved vs ancestor
  Relative MIC: 128
[2]; E. coli NCTC 13846 (EC-MDR), evolved line 1
  MIC of evolved line: 64 µg/mL
[2]; E. coli NCTC 13846 (EC-MDR), evolved line 1, evolved vs ancestor
  Relative MIC: 16
[2]; E. coli NCTC 13846 (EC-MDR), evolved line 2
  MIC of evolved line: 64 µg/mL
[2]; E. coli NCTC 13846 (EC-MDR), evolved line 2, evolved vs ancestor
  Relative MIC: 16
[2]; E. coli NCTC 13846 (EC-MDR), evolved line 3
  MIC of evolved line: 64 µg/mL
[2]; E. coli NCTC 13846 (EC-MDR), evolved line 3, evolved vs ancestor
  Relative MIC: 16
[2]; FoR assay, Escherichia coli ATCC 25922 (EC-SEN), evolved line 1
  Relative MIC: 128
[2]; FoR assay, Escherichia coli ATCC 25922 (EC-SEN), evolved line 2
  Relative MIC: 128
[2]; FoR assay, Escherichia coli ATCC 25922 (EC-SEN), evolved line 3
  Relative MIC: 128
[2]; FoR assay, Escherichia coli NCTC 13846 (EC-MDR), evolved line 1
  Relative MIC: 16
[2]; FoR assay, Escherichia coli NCTC 13846 (EC-MDR), evolved line 2
  Relative MIC: 16
[2]; FoR assay, Escherichia coli NCTC 13846 (EC-MDR), evolved line 3
  Relative MIC: 16
[3]; FoR assay, Klebsiella pneumoniae ATCC 10031 (KP-SEN), evolved line 1
  Relative MIC: 64
[3]; FoR assay, Klebsiella pneumoniae ATCC 10031 (KP-SEN), evolved line 2
  Relative MIC: 1
[3]; FoR assay, Klebsiella pneumoniae ATCC 10031 (KP-SEN), evolved line 3
  Relative MIC: 256
[3]; FoR assay, Klebsiella pneumoniae ATCC 700603 (KP-MDR), evolved line 1
  Relative MIC: 64
[3]; FoR assay, Klebsiella pneumoniae ATCC 700603 (KP-MDR), evolved line 2
  Relative MIC: 64
[3]; FoR assay, Klebsiella pneumoniae ATCC 700603 (KP-MDR), evolved line 3
  Relative MIC: 64
[3]; Klebsiella pneumoniae ATCC 10031 (KP-SEN), evolved line 1
  MIC of evolved line: 32 µg/mL
[3]; Klebsiella pneumoniae ATCC 10031 (KP-SEN), evolved line 2
  MIC of evolved line: 0.25 µg/mL
[3]; Klebsiella pneumoniae ATCC 10031 (KP-SEN), evolved line 3
  MIC of evolved line: 128 µg/mL
[3]; Klebsiella pneumoniae ATCC 10031 (KP-SEN), evolved line 1 versus ancestor
  Relative MIC: 64
[3]; Klebsiella pneumoniae ATCC 10031 (KP-SEN), evolved line 2 versus ancestor
  Relative MIC: 1
[3]; Klebsiella pneumoniae ATCC 10031 (KP-SEN), evolved line 3 versus ancestor
  Relative MIC: 256
[3]; Klebsiella pneumoniae ATCC 700603 (KP-MDR), evolved line 1
  MIC of evolved line: 32 µg/mL
[3]; Klebsiella pneumoniae ATCC 700603 (KP-MDR), evolved line 2
  MIC of evolved line: 32 µg/mL
[3]; Klebsiella pneumoniae ATCC 700603 (KP-MDR), evolved line 3
  MIC of evolved line: 32 µg/mL
[3]; Klebsiella pneumoniae ATCC 700603 (KP-MDR), evolved line 1 versus ancestor
  Relative MIC: 64
[3]; Klebsiella pneumoniae ATCC 700603 (KP-MDR), evolved line 2 versus ancestor
  Relative MIC: 64
[3]; Klebsiella pneumoniae ATCC 700603 (KP-MDR), evolved line 3 versus ancestor
  Relative MIC: 64

Source: article PMC11845477, “Exploring the principles behind antibiotics with limited resistance” (Nature Communications, 2025)
